Consider eight molecules from ChEMBL document CHEMBL1136475, “Synthesis and analgesic activity of hydrochlorides and quaternary ammoniums of epibatidine incorporated with amino acid ester” (Bioorg Med Chem Lett, 2003).

Data set [1] is described as follows: Toxicity in rats was determined by sc administration at a dose of 10 mg/kg. It is filed as organism-based. The arrangement: dose 10 mg/kg, route subcutaneous. Conditions: rat, in vivo, read-out: Rate of death.
Data set [2] relates to Mus musculus. In words: In vivo analgesic activity using acetic acid writhing test in mice at a dose of 10 mg/kg by sc administration. The data set is classed as functional. The note with it: route subcutaneous.
The test system of data set [3] is Mus musculus. In words: In vivo analgesic activity using acetic acid writhing test in mice at a dose of 20 mg/kg by sc administration. The data set is classed as functional. The note with it: route subcutaneous. (Writhing tests count abdominal constrictions after an irritant is injected.)
Data set [4] in a line: Toxicity in rats was determined by sc administration at a dose of 20 mg/kg. The data set is classed as organism-based. The arrangement: dose 20 mg/kg, route subcutaneous. The note with it: rat, in vivo, read-out: Rate of death.
Data set [5] has as its target Neuronal acetylcholine receptor. In words: Binding affinity towards nicotinic acetylcholine receptor (nAChR). It is filed as protein-complex assay.
A short description of data set [6]: Toxicity in rats was determined by sc administration at a dose of 1 mg/kg. It is filed as organism-based. The arrangement: dose 1 mg/kg, route subcutaneous. Conditions: rat, in vivo, read-out: Rate of death.
A short description of data set [7]: Toxicity in rats was determined by sc administration at a dose of 5 mg/kg. The data set is classed as organism-based. Also noted: dose 5 mg/kg, route subcutaneous. The note with it: rat, in vivo, read-out: Rate of death.
Data set [8] has as its system Mus musculus. Nature of the data set: In vivo analgesic activity using acetic acid writhing test in mice at a dose of 1 mg/kg by sc administration. It is filed as functional. The note with it: route subcutaneous.
The test system of data set [9] is Mus musculus. In words: In vivo analgesic activity using acetic acid writhing test in mice at a dose of 5 mg/kg by sc administration. The data set is classed as functional. The note with it: route subcutaneous.

Molecules are shown by their SMILES.

Take `CCOC(=O)CCC(NC(=O)C1C(c2ccc(Cl)nc2)C2CCC1[N+]2(C)Cc1ccccc1)C(=O)OCC.[I-]` (configuration not stated): the mortality in data set [1] was found to be 80%. The Inhibitory rate in the data set on Mus musculus [2] is given as 99.3%; in the data set on Mus musculus [3], 1%.

For the molecule `CCOC(=O)CCC(NC(=O)C1C(c2ccc(Cl)nc2)C2CCC1N2Cc1ccccc1)C(=O)OCC.Cl` (configuration not stated), the mortality in data set [4] is 0%. Moreover, in the data set with Mus musculus [3], the Inhibitory rate turned out to be 27.1%.

`CCOC(=O)C1CSCN1C(=O)C1C(c2ccc(Cl)nc2)C2CCC1N2Cc1ccccc1.Cl` (configuration not stated): the mortality in [4] amounted to 0%. For the same molecule, the Inhibitory rate in the data set on Mus musculus [3] amounted to 12.3%.

The term Ki denotes the dissociation constant of the complex between target and ligand, obtained from inhibition or displacement. Higher therefore signals weaker binding. For `c1cncc(CN2C3CCC2CC3)c1`, the Ki in data set [5] was found to be 0.098 µM.

With `CCOC(=O)C1CSCN1C(=O)C1C(c2ccc(Cl)nc2)C2CCC1[N+]2(C)Cc1ccccc1.[I-]` (configuration not stated), the mortality in data set [6] and in data set [7] was 0% each time. The Inhibitory rate with Mus musculus [8] was determined as 9.1%; with Mus musculus [9] it was 49.8%.

Take `CCOC(=O)CNC(=O)C1C(c2ccc(Cl)nc2)C2CCC1N2Cc1ccccc1.Cl` (configuration not stated): the mortality in data set [4] was found to be 0%. This molecule also displayed an Inhibitory rate in the data set with Mus musculus [3] of 26.1%.

In the data set with Mus musculus [3], `C[N+]1(Cc2ccccc2)CCN(C(=O)CCCCCCC(=O)N2CC[N+](C)(Cc3ccccc3)CC2)CC1.[Br-].[Br-]` displayed an Inhibitory rate of 80.3%.

In the case of `CCOC(=O)CNC(=O)C1C(c2ccc(Cl)nc2)C2CCC1[N+]2(C)Cc1ccccc1.[I-]` (configuration not stated), in data set [4], the mortality was 0%. The molecule also registered an Inhibitory rate in the data set with Mus musculus [3] of 66.6%.
